Drawing on ChEMBL document CHEMBL5584343, “Cerastecin Inhibition of the Lipooligosaccharide Transporter MsbA to Combat Acinetobacter baumannii: From Screening Impurity to In Vivo Efficacy” (J Med Chem, 2024), this text covers MIC95, EC50 and Selectivity ratio for 34 compounds.

The test system of test [1] is Acinetobacter baumannii. The experiment in a line: Antibacterial activity against Acinetobacter baumannii ATCC19606 incubated for 18 to 20 hrs in presence of 1% of human serum by microbroth dilution method. The test is classed as functional. To be noted: time 18-20 hrs. In general terms: In broth dilution the organism is exposed to a series of concentrations in liquid medium.

In test [2] the test system is Acinetobacter baumannii. Briefly: Antibacterial activity against Acinetobacter baumannii ATCC19606 assessed as bacterial growth inhibition incubated for 18 to 20 hrs by microbroth dilution method. To be noted: time 18-20 hrs. Format: functional.
The nature of test [3]: Inhibition of wildtype Acinetobacter baumannii MsbA preincubated for 30 mins followed by ATP addition and measured after 1 hrs by Transcreener ADP2 F1 assay.
Test [4] has as its system Acinetobacter baumannii. Briefly: Selectivity ratio of MIC95 for antibacterial activity against Acinetobacter baumannii ATCC19606 in the presence of 1% human serum to MIC95 for antibacterial activity against Acinetobacter baumannii ATCC19606. The test is classed as functional.

Converted amounts (≈) assume the structure as drawn.

Broadly, the EC50 is the concentration that produces a half-maximal response. A higher EC50 goes with a need for much substance.

For `CCCCc1ccc(S(=O)(=O)Nc2ccc(NC(=O)CCC(=O)Nc3ccc(NS(=O)(=O)c4ccc(CCCC)cc4)c(C(=O)OCC)c3)cc2C(=O)OCC)cc1`, the MIC95 with Acinetobacter baumannii [1] and in the test with Acinetobacter baumannii [2] was over 200 µM in each case. The compound further had an EC50 in test [3] of over 198000 nM.
Take `CCCCc1ccc(S(=O)(=O)Nc2ccc(NC(=O)CCC(=O)Nc3ccc(N(C)S(=O)(=O)c4ccc(CCCC)cc4)c(C(=O)O)c3)cc2C(=O)O)cc1`: the MIC95 came to 50 µM in the test with Acinetobacter baumannii [1] and 1.11 µM (≈ 0.877 µg/mL) with Acinetobacter baumannii [2]. The same compound showed an EC50 in test [3] of 456 nM. Also, the Selectivity ratio in the test on Acinetobacter baumannii [4] turned out to be 45.
Take `CCCCc1ccc(S(=O)(=O)Nc2ccc(N(C)C(=O)CCC(=O)N(C)c3ccc(NS(=O)(=O)c4ccc(CCCC)cc4)c(C(=O)O)c3)cc2C(=O)O)cc1`: the MIC95 in the test on Acinetobacter baumannii [1] and with Acinetobacter baumannii [2] was over 200 µM in each case. For the same compound, the EC50 in test [3] was over 198000 nM.
`CCCCc1ccc(S(=O)(=O)Nc2ccc(NC(=O)CCCOc3ccc(NS(=O)(=O)c4ccc(CCCC)cc4)c(C(=O)O)c3)cc2C(=O)O)cc1`: the MIC95 with Acinetobacter baumannii [1] was found to be 6.25 µM; in the test on Acinetobacter baumannii [2] it was 0.069 µM (≈ 0.0528 µg/mL). Further, the EC50 in test [3] is 16 nM. Moreover, the Selectivity ratio in the test with Acinetobacter baumannii [4] is on record as 91.
In the same order, the values of `CCCCc1ccc(S(=O)(=O)Nc2ccc(NC(=O)CCC(=O)Nc3ccc(NS(=O)(=O)c4ccc(CCCC)cc4)c(C(=O)O)c3)cc2O)cc1` are 25 µM, 1.56 µM (≈ 1.17 µg/mL), 626 nM and 16.
On to `CCCCc1ccc(S(=O)(=O)Nc2ccc(NC(=O)CCC(=O)Nc3ccc(NS(=O)(=O)c4ccccc4)c(C(=O)O)c3)cc2C(=O)O)cc1`, for which the MIC95 turned out to be 12.5 µM with Acinetobacter baumannii [1] and 0.782 µM (≈ 0.565 µg/mL) with Acinetobacter baumannii [2]. The same compound displayed an EC50 in test [3] of 311 nM. In addition, in the test on Acinetobacter baumannii [4], the Selectivity ratio turned out to be 16.
In the same order, the values of `CCCCc1ccc(S(=O)(=O)Nc2ccc(NC(=O)CCC(=O)Nc3ccc(NS(=O)(=O)c4ccc(CCCC)cc4)c(C(=O)O)c3)c(C(=O)O)c2)cc1` are 12.5 µM, 0.391 µM (≈ 0.305 µg/mL), 124 nM and 32.
In the case of `CCCCc1ccc(S(=O)(=O)Nc2ccc(NC(=O)CCC(=O)Nc3ccc(NS(=O)(=O)c4ccc(CCCC)cc4)c(C(=O)O)c3)cc2CO)cc1`, the MIC95 is over 200 µM in the test on Acinetobacter baumannii [1] and 6.25 µM (≈ 4.78 µg/mL) with Acinetobacter baumannii [2]. In test [3], this compound displayed an EC50 of 1240 nM. Also, the Selectivity ratio in the test on Acinetobacter baumannii [4] is given as over 32.
Take `CCCCc1ccc(S(=O)(=O)N(C)c2ccc(NC(=O)CCC(=O)Nc3ccc(N(C)S(=O)(=O)c4ccc(CCCC)cc4)c(C(=O)O)c3)cc2C(=O)O)cc1`: the MIC95 with Acinetobacter baumannii [1] and with Acinetobacter baumannii [2] was over 200 µM in each case. The same compound yielded an EC50 in test [3] of over 198000 nM.
Turning to `CCCCc1ccc(S(=O)(=O)Nc2ccc(NC(=O)CCC(=O)Nc3ccc(NS(=O)(=O)c4ccc(CCCC)cc4)c(P(=O)(O)O)c3)cc2C(=O)O)cc1`, the MIC95 in the test with Acinetobacter baumannii [1] was determined as 25 µM; with Acinetobacter baumannii [2], 1.56 µM (≈ 1.27 µg/mL). A half-maximal response in test [3] (EC50) required 416 nM. The Selectivity ratio with Acinetobacter baumannii [4] was 16.
In the same order, the values of `CCCCc1ccc(S(=O)(=O)Nc2ccc(NC(=O)CCC(=O)Nc3ccc(NS(=O)(=O)c4ccc(CCCC)cn4)c(C(=O)O)c3)cc2C(=O)O)nc1` are 200 µM, 25 µM (≈ 19.5 µg/mL), 1790 nM and 8.
In the same order, the values of `CCCCc1ccc(S(=O)(=O)Nc2ccc(NCCCCNc3ccc(NS(=O)(=O)c4ccc(CCCC)cc4)c(C(=O)O)c3)cc2C(=O)O)cc1` are 12.5 µM, 0.783 µM (≈ 0.588 µg/mL), 623 nM and 16.
As for `CCCCc1ccc(S(=O)(=O)Nc2ccc(NC/C=C\CNc3ccc(NS(=O)(=O)c4ccc(CCCC)cc4)c(C(=O)O)c3)cc2C(=O)O)cc1`, the MIC95 in the test on Acinetobacter baumannii [1] is 25 µM; in the test on Acinetobacter baumannii [2], 3.12 µM (≈ 2.34 µg/mL). The compound also displayed an EC50 in test [3] of over 198000 nM. For the same compound, the Selectivity ratio in the test with Acinetobacter baumannii [4] amounted to 8.
In the same order, the values of `CCCCc1ccc(S(=O)(=O)Nc2ccc(NC(=O)CCC(=O)Nc3ccc(NS(=O)(=O)c4ccc(Oc5ccccc5)nc4)c(C(=O)O)c3)cc2C(=O)O)cc1` are 4.42 µM, 0.069 µM (≈ 0.0563 µg/mL), 47 nM and 64.
In the same order, the values of `CCCCc1ccc(S(=O)(=O)Nc2ccc(NC(=O)CCC(=O)Nc3ccc(NS(=O)(=O)c4ccc(N5CCOCC5)nc4)c(C(=O)O)c3)cc2C(=O)O)cc1` are 25 µM, 1.56 µM (≈ 1.26 µg/mL), 188 nM and 16.
As to `CCCCc1ccc(S(=O)(=O)Nc2ccc(NC(=O)CCC(=O)Nc3ccc(NS(=O)(=O)c4ccc(CCCC)cc4)c(C(=O)O)c3)cc2)cc1`, the MIC95 with Acinetobacter baumannii [1] was over 200 µM; with Acinetobacter baumannii [2], 0.781 µM (≈ 0.574 µg/mL). The same compound had an EC50 in test [3] of 790 nM. In the test with Acinetobacter baumannii [4], the Selectivity ratio is listed as over 256.
Regarding `CCCCc1ccc(S(=O)(=O)Nc2ccc(NC(=O)CCC(=O)Nc3ccc(NS(=O)(=O)c4ccc(CCCC)cc4)c(C(=O)O)c3)cc2F)cc1`, the MIC95 in the test with Acinetobacter baumannii [1] and in the test with Acinetobacter baumannii [2] was over 200 µM throughout. Besides, a half-maximal effect in test [3] (EC50) was put at 1170 nM.
Consider `CCCCc1ccc(S(=O)(=O)Nc2ccc(C(=O)NCCNC(=O)c3ccc(NS(=O)(=O)c4ccc(CCCC)cc4)c(C(=O)O)c3)cc2C(=O)O)cc1`, for which the MIC95 with Acinetobacter baumannii [1] and with Acinetobacter baumannii [2] was over 200 µM in each case. For the same compound, in test [3], the EC50 was over 198000 nM.
Take `CCCCc1ccc(S(=O)(=O)Nc2ccc(NC(=O)CCC(=O)Nc3ccc(NS(=O)(=O)c4ccc(CCCC)cc4)c(C(=O)NC)c3)cc2C(=O)O)cc1`: the MIC95 in the test with Acinetobacter baumannii [1] and with Acinetobacter baumannii [2] was over 200 µM each time. This compound returned an EC50 in test [3] of 765 nM.
Regarding `CCCCc1ccc(NS(=O)(=O)c2ccc(NC(=O)CCC(=O)Nc3ccc(NS(=O)(=O)c4ccc(CCCC)cc4)c(C(=O)O)c3)cc2C(=O)O)cc1`, the MIC95 in the test with Acinetobacter baumannii [1] amounted to 25 µM; in the test on Acinetobacter baumannii [2], 0.783 µM (≈ 0.61 µg/mL). Besides, in test [3], the EC50 came to 597 nM. Moreover, the Selectivity ratio in the test on Acinetobacter baumannii [4] is 32.
Turning to `CCCCc1ccc(S(=O)(=O)Nc2ccc(NC(=O)/C=C\C(=O)Nc3ccc(NS(=O)(=O)c4ccc(CCCC)cc4)c(C(=O)O)c3)cc2C(=O)O)cc1`, the MIC95 was 8.84 µM with Acinetobacter baumannii [1] and 0.277 µM (≈ 0.215 µg/mL) with Acinetobacter baumannii [2]. The compound also showed an EC50 in test [3] of 27 nM. The Selectivity ratio in the test on Acinetobacter baumannii [4] is 32.
As to `CCCCc1ccc(C(=O)Nc2ccc(NC(=O)CCC(=O)Nc3ccc(NS(=O)(=O)c4ccc(CCCC)cc4)c(C(=O)O)c3)cc2C(=O)O)cc1`, the MIC95 in the test on Acinetobacter baumannii [1] and with Acinetobacter baumannii [2] was over 200 µM each time. The compound also registered an EC50 in test [3] of over 198000 nM.
For `CCCCc1ccc(S(=O)(=O)Nc2ccc(NC(=O)CCC(=O)Nc3ccc(NS(=O)(=O)c4ccc(CCCC)cc4)c(C(=O)O)c3)cc2CC(=O)O)cc1`, the MIC95 with Acinetobacter baumannii [1] was found to be 25 µM; with Acinetobacter baumannii [2] it was 0.196 µM (≈ 0.155 µg/mL). In test [3], this compound yielded an EC50 of 967 nM. The Selectivity ratio with Acinetobacter baumannii [4] is given as 128.
Regarding `CCCCc1ccc(S(=O)(=O)Nc2ccc(NC(=O)CCC(=O)Nc3ccc(NS(=O)(=O)c4ccc(CCCC)cc4)c(C(=O)O)c3)cc2C#N)cc1`, the MIC95 with Acinetobacter baumannii [1] and in the test with Acinetobacter baumannii [2] was over 200 µM throughout. Besides, the EC50 in test [3] came to 1600 nM.
In the case of `CCCCc1ccc(S(=O)(=O)Nc2ccc(NC(=O)CCC(=O)Nc3ccc(NS(=O)(=O)c4ccc(OC)nc4)c(C(=O)O)c3)cc2C(=O)O)cc1`, the MIC95 was 25 µM in the test with Acinetobacter baumannii [1] and 1.56 µM (≈ 1.18 µg/mL) in the test with Acinetobacter baumannii [2]. Also, in test [3], the EC50 is 92 nM. In the test on Acinetobacter baumannii [4], the Selectivity ratio was 16.
`CCCCc1ccc(S(=O)(=O)Nc2ccc(NC(=O)CCC(=O)Nc3ccc(N)c(C(=O)O)c3)cc2C(=O)O)cc1`: the MIC95 with Acinetobacter baumannii [1] and with Acinetobacter baumannii [2] was over 200 µM throughout. The same compound displayed an EC50 in test [3] of over 66200 nM.
As for `CCCCc1ccc(S(=O)(=O)Nc2ccc(CNCCC(=O)Nc3ccc(NS(=O)(=O)c4ccc(CCCC)cc4)c(C(=O)O)c3)cc2C(=O)O)cc1`, the MIC95 is 1.56 µM in the test with Acinetobacter baumannii [1] and 0.277 µM (≈ 0.212 µg/mL) in the test on Acinetobacter baumannii [2]. In test [3], this compound returned an EC50 of 308 nM. Moreover, in the test on Acinetobacter baumannii [4], the Selectivity ratio is recorded as 5.6.
In the same order, the values of `O=C(CCC(=O)Nc1ccc(NS(=O)(=O)c2ccc(Oc3ccccc3)nc2)c(C(=O)O)c1)Nc1ccc(NS(=O)(=O)c2ccc(Oc3ccccc3)nc2)c(C(=O)O)c1` are 6.25 µM, 0.196 µM (≈ 0.167 µg/mL), 136 nM and 32.
`CCCCc1ccc(S(=O)(=O)Nc2ccc(NC(=O)CCC(=O)Nc3ccc(NS(=O)(=O)c4ccc(CCCC)cc4)c(-c4nn[nH]n4)c3)cc2C(=O)O)cc1`: the MIC95 is 25 µM in the test on Acinetobacter baumannii [1] and 0.553 µM (≈ 0.444 µg/mL) with Acinetobacter baumannii [2]. The compound further had an EC50 in test [3] of 291 nM. Moreover, in the test on Acinetobacter baumannii [4], the Selectivity ratio stood at 45.
As for `CCCCc1ccc(S(=O)(=O)Nc2ccc(NC(=O)CCC(=O)Nc3cccc(C(=O)O)c3)cc2C(=O)O)cc1`, the MIC95 in the test with Acinetobacter baumannii [1] and with Acinetobacter baumannii [2] was over 200 µM throughout. The EC50 in test [3] turned out to be 32400 nM.
Take `CCCCc1ccc(S(=O)(=O)Nc2ccc(NC(=O)CCC(=O)Nc3ccc(NS(=O)(=O)c4ccc(CCCC)cc4)c(S(=O)(=O)O)c3)cc2C(=O)O)cc1`: the MIC95 stood at 12.5 µM in the test on Acinetobacter baumannii [1] and 0.196 µM (≈ 0.16 µg/mL) in the test with Acinetobacter baumannii [2]. Further, in test [3], the response was half-maximal at 37 nM (EC50). The Selectivity ratio with Acinetobacter baumannii [4] came to 64.
In the same order, the values of `CCCCc1ccc(S(=O)(=O)Nc2ccc(NC(=O)CCC(=O)Nc3ccc(NS(C)(=O)=O)c(C(=O)O)c3)cc2C(=O)O)cc1` are 200 µM, 100 µM (≈ 66.1 µg/mL), 6400 nM and 2.
In the same order, the values of `CCCCc1ccc(S(=O)(=O)Nc2ccc(NC(=O)CCC(=O)Nc3ccc(NS(=O)(=O)c4ccc(CCCC)nc4)c(C(=O)O)c3)cc2C(=O)O)cn1` are 25 µM, 2.21 µM (≈ 1.73 µg/mL), 82 nM and 11.
For `CCCCc1ccc(S(=O)(=O)Nc2ccc(NC(=O)CCC(=O)Nc3ccc(NS(=O)(=O)c4ccc(CCCC)cc4)c(C(N)=O)c3)cc2C(N)=O)cc1`, the MIC95 in the test with Acinetobacter baumannii [1] and in the test with Acinetobacter baumannii [2] was over 200 µM each time. In test [3], this compound displayed an EC50 of 512 nM.
